Patent publication US20260184710A1, “CASITAS B-LINEAGE LYMPHOMA PROTOONCOGENE B (CBL-B) DEGRADING COMPOUNDS AND ASSOCIATED METHODS OF USE” (Arvinas Operations, Inc., priority 2022, published 2026)

Assays:
Cbl-b [1] = target: T1, Cbl-b (Homo sapiens, UniProt Q13191); assay: Cbl-b Degradation Method A (FACS, anti-Cbl-b antibody staining); assay type: cell-based; settings: for DC50: half maximal degradation, read-out: Cbl-b Degredation Method A IC50; for Dmax: Jurkat, read-out: Cbl-b Degredation Method A Dmax (%)
T1 construct: Cbl-b-HiBit KI Jurkat Cells were purchased from Promega; host or cells: Cbl-b-HiBiT knock-in Jurkat cells
T1 sequence (Q13191 whole entry): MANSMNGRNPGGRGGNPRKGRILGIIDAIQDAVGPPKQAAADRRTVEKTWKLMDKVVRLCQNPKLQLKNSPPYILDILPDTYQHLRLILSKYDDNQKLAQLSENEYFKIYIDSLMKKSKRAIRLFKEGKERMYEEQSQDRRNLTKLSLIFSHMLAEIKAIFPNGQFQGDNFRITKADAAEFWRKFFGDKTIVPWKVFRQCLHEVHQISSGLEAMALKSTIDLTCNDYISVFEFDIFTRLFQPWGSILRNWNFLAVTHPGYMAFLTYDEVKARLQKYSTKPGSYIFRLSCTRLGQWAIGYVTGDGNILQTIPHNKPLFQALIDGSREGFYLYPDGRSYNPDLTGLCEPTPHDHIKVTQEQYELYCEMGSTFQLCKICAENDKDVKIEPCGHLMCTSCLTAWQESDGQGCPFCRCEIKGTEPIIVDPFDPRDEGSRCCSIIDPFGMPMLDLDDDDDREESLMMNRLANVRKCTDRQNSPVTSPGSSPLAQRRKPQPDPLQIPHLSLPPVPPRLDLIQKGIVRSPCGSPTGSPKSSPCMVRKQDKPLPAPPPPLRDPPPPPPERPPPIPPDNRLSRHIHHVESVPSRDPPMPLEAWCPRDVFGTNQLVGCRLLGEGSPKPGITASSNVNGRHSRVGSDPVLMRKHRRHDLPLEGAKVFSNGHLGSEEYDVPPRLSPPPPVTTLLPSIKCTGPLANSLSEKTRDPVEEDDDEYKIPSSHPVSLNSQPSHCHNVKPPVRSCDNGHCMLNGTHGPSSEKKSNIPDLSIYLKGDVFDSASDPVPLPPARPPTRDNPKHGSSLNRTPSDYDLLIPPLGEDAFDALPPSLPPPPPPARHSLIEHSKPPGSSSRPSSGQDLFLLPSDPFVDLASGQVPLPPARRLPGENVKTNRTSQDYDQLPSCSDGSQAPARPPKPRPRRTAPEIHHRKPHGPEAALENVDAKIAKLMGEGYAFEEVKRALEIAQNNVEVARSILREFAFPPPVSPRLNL
Procedure, shortened: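 Cbl-b-HiBit KI Jurkat cells treated with compound for at least 20 h at 37 °C, then fixed, permeabilized and stained with anti-Cbl-b antibody plus anti-rabbit AF488 secondary. Cbl-b levels read by FACS; DC50 and Dmax (percent of control) derived.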

Cbl-b [2] = target: T1, Cbl-b; assay: Cbl-b Degradation Method B (Nano-Glo HiBiT lytic detection); assay type: cell-based; settings: Cbl-b-HiBit KI Jurkat Cells, incubated at least 6-24 hours; for DC50: half maximal degradation, read-out: Cbl-b Degredation Method B IC50; for Dmax: maximum degradation observed, read-out: Cbl-b Degredation Method B Dmax (%)
Procedure, shortened: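 Cbl-b-HiBiT knock-in Jurkat cells (20,000/well) were treated after ~24 h plating with an 11-point 1:3 series for 6-24 h at 37° C. Remaining Cbl-b measured by Nano-Glo HiBiT lytic luminescence. DC50 and Dmax expressed as % of control.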

[3] = Cbl-b-HiBit KI Jurkat Cells, incubated at least 20 hours
[4] = Cbl-b-HiBit KI Jurkat Cells, incubated at least 20 hours, maximum degradation observed

Cn1cnnc1C[C@]1(c2cccc(N3Cc4c(cc(N5CC6(CCN(CC7CCN(c8ccc9c(c8)C(=O)N(C8CCC(=O)NC8=O)C9=O)CC7)CC6)C5)cc4C(F)(F)F)C3=O)c2)C[C@@H](C#N)C1 (stereo partly shown) [Example 137, (1s,3s)-3-(3-{6-[7-({1-[2-(2,6-dioxopiperidin-3-yl)-1,3-dioxo-2,3-dihydro-1H-isoindol-5-yl]piperidin-4-yl}methyl)-2,7-diazaspiro[3.5]nonan-2-yl]-1-oxo-4-(trifluoromethyl)-2,3-dihydro-1H-isoindol-2-yl}phenyl)-3-[(4-methyl-4H-1,2,4-triazol-3-yl)methyl]cyclobutane-1-carbonitrile]
DC50 (Cbl-b [1]; [3]): 5 to 50 nM
Dmax (Cbl-b [1]; [4]): 35 to 70%
DC50 (Cbl-b [2]): 5 to 50 nM
Dmax (Cbl-b [2]): 35 to 70%

CC1c2cc(N3CCC(CN4CCC5(CC4)CN(c4cc6c(c(C(F)(F)F)c4)CN(c4cccc(C7(Cc8nncn8C)COC7)c4)C6=O)C5)CC3)ccc2C(=O)N1C1CCC(=O)NC1=O (stereo not shown) [Example 138, 3-{3-methyl-5-[4-({2-[2-(3-{3-[(4-methyl-4H-1,2,4-triazol-3-yl)methyl]oxetan-3-yl}phenyl)-3-oxo-7-(trifluoromethyl)-2,3-dihydro-1H-isoindol-5-yl]-2,7-diazaspiro[3.5]nonan-7-yl}methyl)piperidin-1-yl]-1-oxo-2,3-dihydro-1H-isoindol-2-yl}piperidine-2,6-dione]
DC50 (Cbl-b [1]; [3]): 5 to 50 nM
Dmax (Cbl-b [1]; [4]): 35 to 70%
DC50 (Cbl-b [2]): < 5 nM
Dmax (Cbl-b [2]): < 35%

Cn1cnnc1CC1(c2cccc(N3Cc4c(cc(N5CCN(C[C@H]6CC[C@H](OC7CCN(c8ccc9c(c8F)CN(C8CCC(=O)NC8=O)C9=O)CC7)CC6)CC5)cc4C(F)(F)F)C3=O)c2)COC1 (stereo partly shown) [Example 139, 3-[4-fluoro-1-oxo-5-(4-{[(1r,4r)-4-({4-[2-(3-{3-[(4-methyl-4H-1,2,4-triazol-3-yl)methyl]oxetan-3-yl}phenyl)-3-oxo-7-(trifluoromethyl)-2,3-dihydro-1H-isoindol-5-yl]piperazin-1-yl}methyl)cyclohexyl]oxy}piperidin-1-yl)-2,3-dihydro-1H-isoindol-2-yl]piperidine-2,6-dione]
DC50 (Cbl-b [1]; [3]): 5 to 50 nM
Dmax (Cbl-b [1]; [4]): 35 to 70%
DC50 (Cbl-b [2]): 5 to 50 nM
Dmax (Cbl-b [2]): 35 to 70%

Cn1cnnc1CC1(c2cccc(N3Cc4c(cc(CN5CCC[C@H](CN6CCN(C[C@H]7CC[C@H](OC8CCN(c9ccc%10c(c9F)CN(C9CCC(=O)NC9=O)C%10=O)CC8)CC7)CC6(C)C)C5)cc4C(F)(F)F)C3=O)c2)COC1 (stereo partly drawn) [Example 148, 3-[5-[4-[4-[[3,3-dimethyl-4-[[(3S)-1-[[2-[3-[3-[(4-methyl-1,2,4-triazol-3-yl)methyl]oxetan-3-yl]phenyl]-3-oxo-7-(trifluoromethyl)isoindolin-5-yl]methyl]-3-piperidyl]methyl]piperazin-1-yl]methyl]cyclohexoxy]-1-piperidyl]-4-fluoro-1-oxo-isoindolin-2-yl]piperidine-2,6-dione]
DC50 (Cbl-b [1]; [3]): < 5 nM
Dmax (Cbl-b [1]): > 70%
DC50 (Cbl-b [2]): < 5 nM
Dmax (Cbl-b [2]): > 70%

Cn1cnnc1[C@]1(c2cccc(N3Cc4c(cc(CN5CCC[C@H](CN6CCN(C[C@H]7CC[C@@H](OC8CCN(c9ccc%10c(c9F)CN(C9CCC(=O)NC9=O)C%10=O)CC8)CC7)CC6)C5)cc4C(F)(F)F)C3=O)c2)C[C@@H](C)C1 (stereo partly drawn) [Example 157, 3-[4-fluoro-1-oxo-5-(4-{[(1r,4r)-4-[(4-{[(3S)-1-[(3-oxo-2-{3-[(1r,3s)-3-methyl-1-(4-methyl-4H-1,2,4-triazol-3-yl)cyclobutyl]phenyl}-7-(trifluoromethyl)-2,3-dihydro-1H-isoindol-5-yl)methyl]piperidin-3-yl]methyl}piperazin-1-yl)methyl]cyclohexyl]oxy}piperidin-1-yl)-2,3-dihydro-1H-isoindol-2-yl]piperidine-2,6-dione]
DC50 (Cbl-b [1]; [3]): < 5 nM
Dmax (Cbl-b [1]; [4]): > 70%
DC50 (Cbl-b [2]): < 5 nM
Dmax (Cbl-b [2]): 35 to 70%

Cn1cnnc1C(c1cccc(N2Cc3c(cc(CN4CCC[C@H](CN5CCN(C[C@H]6CC[C@@H](OC7CCN(c8ccc9c(c8F)CN(C8CCC(=O)NC8=O)C9=O)CC7)CC6)CC5)C4)cc3C(F)(F)F)C2=O)c1)C1CCC1 (stereo partly drawn) [Example 158, 3-[4-fluoro-1-oxo-5-(4-{[(1r,4r)-4-[(4-{[(3S)-1-[(2-{3-[cyclobutyl(4-methyl-4H-1,2,4-triazol-3-yl)methyl]phenyl}-3-oxo-7-(trifluoromethyl)-2,3-dihydro-1H-isoindol-5-yl)methyl]piperidin-3-yl]methyl}piperazin-1-yl)methyl]cyclohexyl]oxy}piperidin-1-yl)-2,3-dihydro-1H-isoindol-2-yl]piperidine-2,6-dione]
DC50 (Cbl-b [1]; [3]): < 5 nM
Dmax (Cbl-b [1]; [4]): > 70%
DC50 (Cbl-b [2]): < 5 nM
Dmax (Cbl-b [2]): 35 to 70%

Cn1cnnc1[C@]1(c2cccc(N3Cc4c(cc(CN5CCC[C@H](CN6CCN(C[C@H]7CC[C@@H](OC8CCN(c9ccc%10c(c9F)CN(C9CCC(=O)NC9=O)C%10=O)CC8)CC7)CC6)C5)cc4C(F)(F)F)C3=O)c2)C[C@H](C)C1 (stereo partly drawn) [Example 159, 3-[4-fluoro-1-oxo-5-(4-{[(1r,4r)-4-[(4-{[(3S)-1-[(3-oxo-2-{3-[(1s,3r)-3-methyl-1-(4-methyl-4H-1,2,4-triazol-3-yl)cyclobutyl]phenyl}-7-(trifluoromethyl)-2,3-dihydro-1H-isoindol-5-yl)methyl]piperidin-3-yl]methyl}piperazin-1-yl)methyl]cyclohexyl]oxy}piperidin-1-yl)-2,3-dihydro-1H-isoindol-2-yl]piperidine-2,6-dione]
DC50 (Cbl-b [1]; [3]): < 5 nM
Dmax (Cbl-b [1]; [4]): > 70%
DC50 (Cbl-b [2]): < 5 nM
Dmax (Cbl-b [2]): 35 to 70%

CC1c2nc(N3CCC(O[C@H]4CC[C@@H](CN5CCN(C[C@H]6CCCN(Cc7cc8c(c(C(F)(F)F)c7)CN(c7cccc(C9(Cc%10nncn%10C)COC9)c7)C8=O)C6)CC5)CC4)CC3)ccc2C(=O)N1C1CCC(=O)NC1=O (stereo partly drawn) [Example 160, 3-[7-methyl-5-oxo-2-(4-{[(1r,4r)-4-[(4-{[(3S)-1-{[2-(3-{3-[(4-methyl-4H-1,2,4-triazol-3-yl)methyl]oxetan-3-yl}phenyl)-3-oxo-7-(trifluoromethyl)-2,3-dihydro-1H-isoindol-5-yl]methyl}piperidin-3-yl]methyl}piperazin-1-yl)methyl]cyclohexyl]oxy}piperidin-1-yl)-5H,6H,7H-pyrrolo[3,4-b]pyridin-6-yl]piperidine-2,6-dione]
DC50 (Cbl-b [1]; [3]): < 5 nM
Dmax (Cbl-b [1]; [4]): 35 to 70%
DC50 (Cbl-b [2]): < 5 nM
Dmax (Cbl-b [2]): 35 to 70%

Cn1cnnc1C1(c2cccc(N3Cc4c(cc(CN5CCC[C@H](CN6CCN(C[C@H]7CC[C@@H](OC8CCN(c9ccc%10c(c9F)CN(C9CCC(=O)NC9=O)C%10=O)CC8)CC7)CC6)C5)cc4C(F)(F)F)C3=O)c2)COC1 (stereo partly drawn) [Example 161, 3-[4-fluoro-1-oxo-5-(4-{[(1r,4r)-4-[(4-{[(3S)-1-[(2-{3-[3-(4-methyl-4H-1,2,4-triazol-3-yl)oxetan-3-yl]phenyl}-3-oxo-7-(trifluoromethyl)-2,3-dihydro-1H-isoindol-5-yl)methyl]piperidin-3-yl]methyl}piperazin-1-yl)methyl]cyclohexyl]oxy}piperidin-1-yl)-2,3-dihydro-1H-isoindol-2-yl]piperidine-2,6-dione]
DC50 (Cbl-b [1]; [3]): 5 to 50 nM
Dmax (Cbl-b [1]; [4]): < 35%
DC50 (Cbl-b [2]): > 500 nM

Cn1cnnc1CC1(c2cccc(N3Cc4c(cc(CN5CCC[C@H](CN6CCN(C[C@H]7CC[C@@H](OC8CCN(c9ccc%10c(c9F)CN(C9CCC(=O)NC9=O)C%10=O)CC8)CC7)CC6)C5)cc4C(F)(F)F)C3=O)c2)CC1 (stereo partly drawn) [Example 162, 3-[4-fluoro-1-oxo-5-(4-{[(1r,4r)-4-[(4-{[(3S)-1-{[2-(3-{1-[(4-methyl-4H-1,2,4-triazol-3-yl)methyl]cyclopropyl}phenyl)-3-oxo-7-(trifluoromethyl)-2,3-dihydro-1H-isoindol-5-yl]methyl}piperidin-3-yl]methyl}piperazin-1-yl)methyl]cyclohexyl]oxy}piperidin-1-yl)-2,3-dihydro-1H-isoindol-2-yl]piperidine-2,6-dione]
DC50 (Cbl-b [1]; [3]): < 5 nM
Dmax (Cbl-b [1]; [4]): > 70%
DC50 (Cbl-b [2]): < 5 nM
Dmax (Cbl-b [2]): > 70%

COc1c(N2CCC(O[C@H]3CC[C@@H](CN4CCN(C[C@H]5CCCN(Cc6cc7c(c(C(F)(F)F)c6)CN(c6cccc(C8(Cc9nncn9C)COC8)c6)C7=O)C5)CC4)CC3)CC2)ccc2c1CN(C1CCC(=O)NC1=O)C2=O (stereo partly drawn) [Example 163, 3-[4-methoxy-1-oxo-5-(4-{[(1r,4r)-4-[(4-{[(3S)-1-{[2-(3-{3-[(4-methyl-4H-1,2,4-triazol-3-yl)methyl]oxetan-3-yl}phenyl)-3-oxo-7-(trifluoromethyl)-2,3-dihydro-1H-isoindol-5-yl]methyl}piperidin-3-yl]methyl}piperazin-1-yl)methyl]cyclohexyl]oxy}piperidin-1-yl)-2,3-dihydro-1H-isoindol-2-yl]piperidine-2,6-dione]
DC50 (Cbl-b [1]; [3]): < 5 nM
Dmax (Cbl-b [1]; [4]): > 70%
DC50 (Cbl-b [2]): < 5 nM
Dmax (Cbl-b [2]): > 70%
